Values of other authors in patent publication US20250057162A1, “FUNGICIDAL COMPOSITIONS” (SYNGENTA CROP PROTECTION AG, priority 2021, published 2025).

Tested on: Mycosphaerella graminicola (Septoria tritici)

Structure (SMILES): COc1ccnc(C(=O)N[C@@H](C)C(=O)O[C@@H](C)C(c2ccc(F)cc2)c2ccc(F)cc2)c1OC(C)=O [Florylpicoxamid, (1S)-2,2-bis(4-fluorophenyl)-1-methylethyl N-{[3-(acetyloxy)-4-methoxy-2-pyridyl]carbonyl}-L-alaninate]
- control of wheat leaf blotch disease (in words): particularly effective
